The source of these data is patent publication US11407756B2, “Heterocyclic compounds and noxious arthropod control agent containing same” (SUMITOMO CHEMICAL COMPANY, LIMITED, priority 2017, dated 2022).

The subject of this data set is German cockroaches (Blattella germanica). Put plainly: Test method 8: treated filter paper with sucrose, male adult German cockroaches. In kind it is in vivo. The following applies: 500 ppm, 0.7 mL on filter paper, after 6 days, 25° C. On the procedure: Next, Test Examples are used to show effects of the Present compounds X on harmful arthropods. In the following Test Examples, the tests were carried out at 25° C.
Each test compound is formulated according to the process described in the Formulation Example 5 to obtain each formulation, and water is added thereto to prepare a diluted solution containing a prescribed concentration of each test compound.
A filter paper having a diameter of 5.5 cm is lined with the inside bottom of a cup having a diameter of 5.5 cm, each of said diluted solutions (0.7 mL) is added dropwise on the filter paper, and sucrose (30 mg) is homogeneously placed into said cup as a feed. Two (2) male adult German cockroaches (Blattella germanica) are released into said cup, and the cup is covered. After 6 days, life and death of the German cockroach are examined, the number of the dead insects is counted, and the mortality of insects is calculated by the following equation. Mortality(%)=(Number of dead insects/Number of test insects)×100

One may read the mortality as the share of the test organisms that died. Low values mean more survivors, high ones fewer survivors. On to `CCS(=O)(=O)c1cc(OC(C)C)cnc1-n1ccc2nc(C(F)(F)F)cn2c1=O` [compound 12], for which the mortality was 100%.
